Measurements published in patent US10870638B2, “Pyridazinone compound or its salt, and herbicide containing it” (ISHIHARA SANGYO KAISHA, LTD., priority 2016, dated 2020).

How the values were obtained:
Assay type in all cases: in vivo
[1] = tested on: crabgrass (Digitaris sanquinalis L.); test: Test Example 2: soil application on the day after sowing, growth inhibition rate on 14th day; conditions: active ingredient amount 31 g/ha, 14th day after application
Outline: (§1)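 Read-out is visual percent growth inhibition 14 days post-application, scaled from 0 (as non-treated) to 100 (complete kill). Treatment: soil application by small sprayer the day after sowing, compound formulations diluted in water equivalent to 1,000 L/ha.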

[2] = tested on: rice (Oryza sativa L.); test: as above; conditions: active ingredient amount 31 g/ha, 14th day after application
Outline: as §1

[3] = tested on: prickly sida (Sida spinosa L.); test: as above; conditions: active ingredient amount 31 g/ha, 14th day after application
Outline: as §1

[4] = tested on: soybean (Glycine max Merr.); test: as above; conditions: active ingredient amount 31 g/ha, 14th day after application
Outline: as §1

[5] = tested on: barnyardgrass (Echinochloa crus-qalli L.); test: as above; conditions: active ingredient amount 31 g/ha, 14th day after application
Outline: as §1

[6] = tested on: wheat (Triticum aestivum L.); test: as above; conditions: active ingredient amount 31 g/ha, 14th day after application
Outline: as §1

[7] = tested on: green foxtail (Setaria viridis L.); test: as above; conditions: active ingredient amount 31 g/ha, 14th day after application
Outline: as §1

[8] = tested on: velvetleaf (Abutilon theophrasti MEDIC.); test: as above; conditions: active ingredient amount 31 g/ha, 14th day after application
Outline: as §1

[9] = tested on: redroot pigweed (Amaranthus retroflexus L.); test: as above; conditions: active ingredient amount 31 g/ha, 14th day after application
Outline: as §1

[10] = tested on: corn (Zea mays L.); test: as above; conditions: active ingredient amount 31 g/ha, 14th day after application
Outline: as §1

[11] = tested on: crabgrass (Digitaria sanquinalis L.); test: Test Example 1: foliar treatment, growth inhibition rate on 14th day; conditions: active ingredient amount 31 g/ha, 14th day after application, visual, 0 = non-treated, 100 = complete kill
Outline: (§2)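 Using a small sprayer, formulated compound in water (0.1 vol % surfactant, 1,000 L/ha) was applied to seedlings grown from seed in upland soil. Fourteen days on, growth state was observed and expressed as percent inhibition from 0 to 100.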

[12] = tested on: rice (Oryza sativa L.); test: as above; conditions: active ingredient amount 31 g/ha, 14th day after application, visual, 0 = non-treated, 100 = complete kill
Outline: (§3)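 Compounds applied once to leaves of pot-grown plants; wild oat at 0.4–1.2 leaf, foxtail 0.5–3.2, rice 0.2–2.7, soybean primary leaf. Inhibition estimated by eye on day 14.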

[13] = tested on: wild oat (Avena fatua L.); test: as above; conditions: active ingredient amount 31 g/ha, 14th day after application, visual, 0 = non-treated, 100 = complete kill
Outline: as §3

[14] = tested on: soybean (Glycine max Merr.); test: as above; conditions: active ingredient amount 31 g/ha, 14th day after application, visual, 0 = non-treated, 100 = complete kill
Outline: as §3

[15] = tested on: barnyardgrass (Echinochloa crus-qalli L.); test: as above; conditions: active ingredient amount 31 g/ha, 14th day after application, visual, 0 = non-treated, 100 = complete kill
Outline: as §2

[16] = tested on: wheat (Triticum aestivum L.); test: as above; conditions: active ingredient amount 31 g/ha, 14th day after application, visual, 0 = non-treated, 100 = complete kill
Outline: as §2

[17] = tested on: green foxtail (Setaria viridis L.); test: as above; conditions: active ingredient amount 31 g/ha, 14th day after application, visual, 0 = non-treated, 100 = complete kill
Outline: as §3

[18] = tested on: redroot pigweed (Amaranthus retroflexus L.); test: as above; conditions: active ingredient amount 31 g/ha, 14th day after application, visual, 0 = non-treated, 100 = complete kill
Outline: as §2

[19] = tested on: corn (Zea mays L.); test: as above; conditions: active ingredient amount 31 g/ha, 14th day after application, visual, 0 = non-treated, 100 = complete kill
Outline: as §2

[20] = tested on: italian ryegrass (Lolium multiflorum Lam.); test: as above; conditions: active ingredient amount 31 g/ha, 14th day after application, visual, 0 = non-treated, 100 = complete kill
Outline: as §2

| SMILES | Growth inhibition rate (%) Crabgrass [1] | Growth inhibition rate (%) Rice [2] | Growth inhibition rate (%) Prickly sida [3] | Growth inhibition rate (%) Soybean [4] | Growth inhibition rate (%) Barnyardgrass [5] | Growth inhibition rate (%) Wheat [6] | Growth inhibition rate (%) Green foxtail [7] | Growth inhibition rate (%) Velvetleaf [8] | Growth inhibition rate (%) Redroot pigweed [9] | Growth inhibition rate (%) Corn [10] | Growth inhibition rate (%) Crabgrass [11] | Growth inhibition rate (%) Rice [12] | Growth inhibition rate (%) Wild oat [13] | Growth inhibition rate (%) Soybean [14] | Growth inhibition rate (%) Barnyardgrass [15] | Growth inhibition rate (%) Wheat [16] | Growth inhibition rate (%) Green foxtail [17] | Growth inhibition rate (%) Redroot pigweed [18] | Growth inhibition rate (%) Corn [19] | Growth inhibition rate (%) Italian ryegrass [20] |
| --- | --- | --- | --- | --- | --- | --- | --- | --- | --- | --- | --- | --- | --- | --- | --- | --- | --- | --- | --- | --- |
| Cc1ccc(Oc2cnc3cc(Cl)ccc3n2)cc1-c1c(OS(=O)(=O)C(F)(F)F)c(C)nn(C)c1=O [Compound 3-69] | 30% | 0% | 0% | 0% | 93% | 0% | 95% | 0% | 0% | 0% | 95% | 30% | 99% | 0% | 100% | 98% | 100% | 0% | 20% | 99% |
| CCOC(=O)C(=O)Oc1c(C)nn(C)c(=O)c1-c1cc(Oc2cnc3cc(Cl)ccc3n2)ccc1C [Compound 3-79] | 95% | 0% | 0% | 0% | 100% | 0% | 100% | 0% | 0% | 0% | 98% | 99% | 98% | 30% | 100% | 93% | 100% | 0% | 50% | 99% |
| C#CC(=O)Oc1c(C)nn(C)c(=O)c1-c1cc(Oc2cnc3cc(Cl)ccc3n2)ccc1C [Compound 3-82] | 85% | 0% | 0% | 0% | 99% | 0% | 99% | 0% | 0% | 0% | 98% | 93% | 98% | 0% | 100% | 98% | 100% | 10% | 35% | 98% |
| CCn1nc(C)c(O)c(-c2cc(Oc3cnc4cc(Cl)ccc4n3)ccc2C)c1=O [Compound 3-96] | 98% | 75% | 0% | 0% | 99% | 0% | 85% | 0% | 0% | 0% | 100% | 95% | 98% | 0% | 100% | 95% | 100% | 0% | 20% | 99% |
| CCn1nc(C)c(OC(C)=O)c(-c2cc(Oc3cnc4cc(Cl)ccc4n3)ccc2C)c1=O [Compound 3-97] | 93% | 20% | 0% | 0% | 95% | 20% | 99% | 0% | 0% | 0% | 100% | 75% | 100% | 0% | 100% | 95% | 100% | 0% | 15% | 99% |
